Experimental data as given in US8865887B2, “Method for synthesizing calixarene and/or cyclodextrin copolymers, terpolymers and tetrapolymers, and uses thereof” (priority 2009, dated 2014).
In brackets after ≈: the same amount, converted by molar mass. Read-outs that look alike come from different tables or passages of the source.

Assays:
[1] = Method: NIM is used to treat extra-articular and articular inflammatory forms. […] Phase solubility study was carried out according to the method described by Higuchi to study the influence of the complexation of different cyclodextrins on the solubility of NIM. Native cyclodextrins, modified cyclodextrins, cyclodextrin copolymers and cyclodextrin tetrapolymers were used. The cyclodextrin tetrapolymer, based on 35% of alpha-cyclodextrin, 35% beta-cyclodextrin and 30% gamma-cyclodextrin, is synthesized by direct melt polycondensation according to the example 1 and the ratio cyclodextrin/citric acid is 1/3.
Phase Solubility Method: Higuchi's Method
Suspensions were shaken at a temperature of 37° C. on a rotary flask shaker for 7 days and supernatants were filtered through polycarbonate membrane (0.45 μm pore size).

[2] = native cyclodextrins; cited from earlier work

| Compound | Kc [1] | [Nimésulid] max. [1] | solubility in water [2] | [Nimésulid] max. ([1]; 7 days) |
| --- | --- | --- | --- | --- |
| OC[C@H]1O[C@@H]2O[C@H]3[C@H](O)[C@@H](O)[C@@H](O[C@H]4[C@H](O)[C@@H](O)[C@@H](O[C@H]5[C@H](O)[C@@H](O)[C@@H](O[C@H]6[C@H](O)[C@@H](O)[C@@H](O[C@H]7[C@H](O)[C@@H](O)[C@@H](O[C@H]1[C@H](O)[C@H]2O)O[C@@H]7CO)O[C@@H]6CO)O[C@@H]5CO)O[C@@H]4CO)O[C@@H]3CO [alpha-CD, α-cyclodextrin] | 0.045 mM⁻¹ | 0.07708 mg/mL | 127 mg/mL (≈ 131 mM) | – |
| OC[C@H]1O[C@@H]2O[C@H]3[C@H](O)[C@@H](O)[C@@H](O[C@H]4[C@H](O)[C@@H](O)[C@@H](O[C@H]5[C@H](O)[C@@H](O)[C@@H](O[C@H]6[C@H](O)[C@@H](O)[C@@H](O[C@H]7[C@H](O)[C@@H](O)[C@@H](O[C@H]8[C@H](O)[C@@H](O)[C@@H](O[C@H]1[C@H](O)[C@H]2O)O[C@@H]8CO)O[C@@H]7CO)O[C@@H]6CO)O[C@@H]5CO)O[C@@H]4CO)O[C@@H]3CO [beta-CD, β-cyclodextrin] | 0.473 mM⁻¹ | – | – | 0.09249 mg/mL |
| OC[C@H]1O[C@@H]2O[C@H]3[C@H](O)[C@@H](O)[C@@H](O[C@H]4[C@H](O)[C@@H](O)[C@@H](O[C@H]5[C@H](O)[C@@H](O)[C@@H](O[C@H]6[C@H](O)[C@@H](O)[C@@H](O[C@H]7[C@H](O)[C@@H](O)[C@@H](O[C@H]8[C@H](O)[C@@H](O)[C@@H](O[C@H]9[C@H](O)[C@@H](O)[C@@H](O[C@H]1[C@H](O)[C@H]2O)O[C@@H]9CO)O[C@@H]8CO)O[C@@H]7CO)O[C@@H]6CO)O[C@@H]5CO)O[C@@H]4CO)O[C@@H]3CO [gamma-CD, γ-cyclodextrin] | 0.0646 mM⁻¹ | 0.1449 mg/mL | 236 mg/mL (≈ 182 mM) | – |
